Measured values reported in US5032505A, “Inhibitors for glycosaminosyl transferase V” (Chembiomed, Ltd., priority 1988, dated 1991).

Key:
GnT-V [1] = molecular target: T1, GnT-V (Mesocricetus auratus, UniProt A0A1U8C8T3); assay: GnT-V acceptor assay (transfer of GlcNAc from UDP-GlcNAc to synthetic acceptor); assay type: biochemical
T1 sequence (A0A1U8C8T3 1-740): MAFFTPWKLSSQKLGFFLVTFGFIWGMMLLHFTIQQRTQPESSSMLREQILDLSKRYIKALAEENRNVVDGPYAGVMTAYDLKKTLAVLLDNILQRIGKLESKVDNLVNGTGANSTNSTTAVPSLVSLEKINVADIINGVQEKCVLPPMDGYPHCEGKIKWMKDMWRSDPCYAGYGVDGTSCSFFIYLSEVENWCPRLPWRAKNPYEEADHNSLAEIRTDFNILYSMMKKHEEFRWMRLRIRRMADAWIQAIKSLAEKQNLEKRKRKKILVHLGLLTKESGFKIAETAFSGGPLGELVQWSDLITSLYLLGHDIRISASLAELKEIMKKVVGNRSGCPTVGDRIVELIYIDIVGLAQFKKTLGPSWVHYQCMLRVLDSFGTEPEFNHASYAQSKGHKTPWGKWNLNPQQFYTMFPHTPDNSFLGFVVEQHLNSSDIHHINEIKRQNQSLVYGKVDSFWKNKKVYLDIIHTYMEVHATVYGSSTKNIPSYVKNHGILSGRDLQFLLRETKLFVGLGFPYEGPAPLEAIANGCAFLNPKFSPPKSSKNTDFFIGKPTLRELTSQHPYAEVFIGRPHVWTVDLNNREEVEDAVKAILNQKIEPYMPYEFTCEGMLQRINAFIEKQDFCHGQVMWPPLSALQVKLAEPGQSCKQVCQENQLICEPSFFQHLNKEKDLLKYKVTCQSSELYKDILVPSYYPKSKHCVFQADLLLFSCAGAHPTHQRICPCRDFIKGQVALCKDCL
Procedure: One form of the assay is conducted by measuring the uptake of beta-GlcNAc from UDP-beta GlcNAc in the presence of the test extract by the acceptors of the invention. A variety of protocols to detect this uptake can be employed, including, for example, conjugation of the acceptor to a solid support and measuring the uptake of labeled beta-GlcNAc. An illustrative procedure is set forth, using as acceptor the trisaccharide 8-methoxycarbonyl octyl beta-GlcNAc(1-2)alpha-Man(1-6)beta-Man, in Pierce, M., et al, Biochem Biophys Res Commun (1987) 146:679-684, incorporated herein by reference. This procedure uses radiolabeled UDP-beta GlcNAc to provide a detection means for uptake of the substrate. Other protocols for measuring GnT-V using the acceptors of the invention can be adapted, for example, from the procedure used to measure the levels of GnT-V acceptor in EPO published application 134,292 to Abbott Laboratories.
The procedure for assaying GnT-V activity is described in Tahir, S.H., et al, Can J Chem (1986) 64:1771, cited above, and incorporated herein by reference. This procedure is also described in Palcic, M. M., et al, Glycoconjugate J (1988) 5:49, and in Hindsgual, O., et al, Carbohydrate Res (1988) 173:263, both incorporated herein by reference. The latter two citations describe the results of this assay using various synthetic acceptors.

GnT-V [2] = molecular target: T1, GnT-V; conditions: as acceptor for GnT-V; Palcic reference; read-out: apparent Km; cited from earlier work
B16 melanoma = conditions: literature; cited from earlier work
MDAY-D2 lymphoma cells = conditions: literature; cited from earlier work
tumor cells [3] = conditions: literature; cited from earlier work
tumor cells [4] = conditions: literature; cited from earlier work; remark: listed apart in the source

## CCCCCCCCO[C@@H]1O[C@H]([C@@H](C)O[C@H]2O[C@H](CO)[C@@H](O)[C@H](O)[C@@H]2O[C@@H]2O[C@H](CO)[C@@H](O)[C@H](O)[C@H]2NC(C)=O)[C@@H](O)[C@H](O)[C@H]1O
GnT-V [1]; as acceptor, assay of the Pierce reference
  Vmax relative to the unmethylated analog: three times that of the unmethylated analog

## COC(=O)CCCCCCCCO[C@@H]1O[C@H](CO[C@H]2O[C@H](CO)[C@@H](O)[C@H](O)[C@@H]2O[C@@H]2O[C@H](CO)[C@@H](O)[C@H](O)[C@H]2NC(C)=O)[C@@H](O)[C@H](O)[C@@H]1O [8-methoxycarbonyloctyl 6-O-[2-O-(2-acetamido-2-deoxy-beta-D-glucopyranosyl)-alpha-D-mannopyranosyl]-beta-D-mannopyranoside]
GnT-V [2]
  Km: 80 µM

## CC(=O)N[C@H]1[C@H](O[C@@H]2[C@@H](OCC3CCCCC3)O[C@H](CO)[C@@H](O)[C@@H]2O)O[C@H](CO)[C@@H](O)[C@@H]1O [Cyclohexylmethyl 6-O-[2-O-(2-acetamido-2-deoxy-beta-D-glucopyranosyl)-alpha-D-mannopyranoside]]
GnT-V [1]; relative to the other five octyl trisaccharide acceptors
  ability to act as an acceptor, relative to the remaining compounds: about 25%

## COC(=O)CCCCCCCCO[C@@H]1O[C@H](CO[C@H]2O[C@H](CO)[C@@H](O)[C@H](O)[C@@H]2O)[C@@H](O)[C@H](O[C@H]2O[C@H](CO)[C@@H](O)[C@H](O)[C@@H]2O)[C@@H]1O [GnT-1 Acceptor]
Lec8 CHO Cells
  entry into cells: has entered the cells to some extent after 3 hr and to a greater extent after 6

## O[C@H]1[C@H](O)[C@@H](O)CN2CC[C@H](O)[C@H]12 [castanospermine]
B16 melanoma
  organ colonization by B16 melanoma: inhibit organ colonization by B16 melanoma

## CCCCCCCCO[C@@H]1O[C@H]([C@H](C)O[C@H]2O[C@H](CO)[C@@H](O)[C@H](O)[C@@H]2O[C@@H]2O[C@H](CO)[C@@H](O)[C@H](O)[C@H]2NC(C)=O)[C@@H](O)[C@H](O)[C@H]1O [proS methylated compound]
GnT-V [1]; compared with the proR methylated compound
  effectiveness as an acceptor: less effective as an acceptor

## O[C@H]1[C@H]2[C@H](O)CCCN2C[C@H]1O [swainsonine]
B16 melanoma
  organ colonization by B16 melanoma: inhibit organ colonization by B16 melanoma
MDAY-D2 lymphoma cells
  colonization by metastatic MDAY-D2 lymphoma cells: inhibit colonization by metastatic MDAY-D2 lymphoma cells
Tumor cells [3]
  tumor cell growth rate in soft agar: reduce tumor cell growth rate in soft agar
Tumor cells [4]
  susceptibility of tumor cells to natural killer cells: enhance susceptibility of tumor cells to natural killer cells

## tunicamycin
B16 melanoma
  organ colonization by B16 melanoma: inhibit organ colonization by B16 melanoma
